The text below walks through data of ChEMBL document CHEMBL1129724, “Inhibitory potency of lithocholic acid analogs and other bile acids on glucuronosyltransferase activity in a colon cancer cell line” (Bioorg Med Chem Lett, 1996).

The subject of this assay is HT-29. Description: Inhibition of glucuronosyltransferase activity in the human colon cancer cell line HT-29 at 5 uM concentration. The class given is cell-based. Also on record: scale not given: the % may be the effect or the level left.
Consider `CC(CCC(=O)O)C1CCC2C3C=CC4C[C@H](O)CCC4(C)C3CCC12C` (some centres not stated), for which the Activity was 41.4%.
In turn, `CC(CC(O)C(=O)O)[C@H]1CC[C@H]2[C@@H]3CC[C@@H]4C[C@H](O)CC[C@]4(C)[C@H]3CC[C@]12C` (single isomer, unassigned) returned an Activity of 55.4%.
Compound `C[C@H](CCC(=O)O)[C@H]1CC[C@H]2[C@@H]3[C@@H](O)C[C@@H]4C[C@H](O)CC[C@]4(C)[C@H]3CC[C@]12C` registered an Activity of 73.3%.
Take `C[C@H](CCC(=O)O)[C@H]1CC[C@H]2[C@@H]3[C@H](O)C[C@@H]4C[C@H](O)CC[C@]4(C)[C@H]3CC[C@]12C`: the Activity came out at 38.4%.
In the case of `CC(CC(O)C(=O)O)[C@H]1CC[C@H]2[C@@H]3CC[C@@H]4C[C@H](O)CC[C@]4(C)[C@H]3CC[C@]12C` (mixture of isomers) it was 40%; in that of `C[C@H](CCC(=O)O)[C@H]1CC[C@H]2[C@@H]3CC(O)[C@@H]4C[C@H](O)CC[C@]4(C)[C@H]3CC[C@]12C` (single isomer, unassigned), 75.2%; in that of `C[C@H](CCC(=O)O)[C@H]1CC[C@H]2[C@@H]3CC[C@@H]4CCCC[C@]4(C)[C@H]3CC[C@]12C`, 92%.
As for `CC(CCC(C(=O)O)C(=O)O)[C@H]1CC[C@H]2[C@@H]3CC[C@@H]4C[C@H](O)CC[C@]4(C)[C@H]3CC[C@]12C` (some centres not stated), the figure is 74.3%; as for `CC(CCC(=O)O)[C@H]1CC[C@H]2[C@@H]3CC[C@@H]4CC(=O)CC[C@]4(C)[C@H]3CC[C@]12C` (some centres not stated), 46%.
`CC(CCCCC(=O)O)[C@H]1CC[C@H]2[C@@H]3CC[C@@H]4C[C@H](O)CC[C@]4(C)[C@H]3CC[C@]12C` (some centres not stated) showed an Activity of 41.9%.
In the case of `CC(CC(O)C(=O)O)[C@H]1CC[C@H]2[C@@H]3CC[C@@H]4C[C@H](O)CC[C@]4(C)[C@H]3CC[C@]12C` (stereo in doubt) it was 34.9%.
In the case of `CC(CCC(=O)O)[C@H]1CC[C@H]2[C@@H]3C(=O)C[C@@H]4C[C@H](O)CC[C@]4(C)[C@H]3CC[C@]12C` (some centres not stated) it was 51.1%; in that of `CC(CCC(=O)O)[C@H]1CC[C@H]2[C@@H]3C(=O)C[C@@H]4C[C@H](O)CC[C@]4(C)[C@H]3CC(=O)[C@]12C` (some centres not stated), 100%; in that of `C[C@@H](CCC(=O)O)[C@H]1CC[C@H]2[C@@H]3[C@H](O)[C@@H](O)[C@@H]4C[C@H](O)CC[C@]4(C)[C@H]3CC[C@]12C`, 100%.
Compound `CC(CCCO)[C@H]1CC[C@H]2[C@@H]3CC[C@@H]4C[C@H](O)CC[C@]4(C)[C@H]3CC[C@]12C` (some centres not stated) had an Activity of 72.8%.
`CC(CCC(=O)O)[C@H]1CC[C@H]2[C@@H]3CC[C@@H]4C[C@@H](O)CC[C@]4(C)[C@H]3C[C@@H](O)[C@]12C` (some centres not stated): the Activity is 46.4%.
In the case of `CC(CCCOP(=O)(O)O)[C@H]1CC[C@H]2[C@@H]3CC[C@@H]4C[C@H](O)CC[C@]4(C)[C@H]3CC[C@]12C` (some centres not stated) it was 74%; in that of `C[C@H](CCC(=O)O)[C@H]1CC[C@H]2[C@@H]3CC[C@@H]4C[C@H](O)CC[C@]4(C)[C@H]3CC[C@]12C`, 25.3%; in that of `CC(CCC(=O)O)[C@H]1CC[C@H]2[C@@H]3[C@@H](O)[C@H](O)[C@@H]4C[C@H](O)CC[C@]4(C)[C@H]3CC[C@]12C` (some centres not stated), 78.5%.
With `C[C@H](CCC(=O)O)[C@H]1CC[C@H]2[C@@H]3CC[C@@H]4C[C@H](O)CCC4(C)[C@H]3CC(O)[C@]12C` (single isomer, unassigned), the Activity was found to be 48%.
As for `CC(CCC(=O)O)C1CCC2C3C=CC4C[C@@H](O)CCC4(C)C3CCC12C` (some centres not stated), the figure is 39.1%; as for `C[C@H](CCC(=O)O)[C@H]1CC[C@H]2[C@@H]3CCC4CC(O)CC[C@]4(C)[C@H]3CC[C@]12C` (single isomer, unassigned), 46.8%.
In turn, `CC(CCC(=O)O)[C@H]1CC[C@H]2[C@@H]3[C@H](O)[C@H](O)[C@@H]4C[C@H](O)CC[C@]4(C)[C@H]3CC[C@]12C` (some centres not stated) gave an Activity of 73.9%.
In the case of `CC(CCC(=O)O)[C@H]1CC[C@H]2[C@@H]3CC(=O)[C@@H]4C[C@H](O)CC[C@]4(C)[C@H]3CC[C@]12C` (some centres not stated) it was 28.1%; in that of `CC(CCC(=O)O)[C@H]1CC[C@H]2[C@@H]3CC[C@@H]4C[C@H](O)CC[C@]4(C)[C@H]3CC(=O)[C@]12C` (some centres not stated), 36.1%.
In the case of `CC(CCC(=O)O)[C@H]1CC[C@H]2[C@@H]3CC[C@@H]4C[C@@H](O)CC[C@]4(C)[C@H]3CC[C@]12C` (some centres not stated) it was 86.9%; in that of `CC(CCC(=O)O)[C@H]1CC[C@H]2[C@@H]3[C@H](O)C[C@@H]4C[C@H](O)CC[C@]4(C)[C@H]3C[C@@H](O)[C@]12C` (some centres not stated), 98.3%.
